{"source": "patent US20260007687A1", "about": "“A[…] EMULSION INJECTION AND METHOD FOR PREPARING SAME” (JIANGSU NHWA PHARMACEUTICAL CO., LTD, priority 2022, published 2026)", "key": {"[1]": {"conditions": "background statement; cited from earlier work"}, "[2]": {"assay": "ED50 of alphaxalone (basis of the dose in the histamine test)", "conditions": "in vivo"}, "[3]": {"tested_on": "histamine content in mouse plasma", "assay": "Mouse histamine release: plasma histamine content (ELISA) 30 min after intravenous injection", "conditions": "mice", "procedure": "Overall test method: the corresponding solution or formulation was prepared. Administration was performed by intravenous injection, and blood was collected 30 min after administration. After anticoagulation with EDTA, the blood was centrifuged to collect the plasma, and the histamine content in mouse plasma was measured with an ELISA kit.\nBlank plasma: blood was directly collected from mice and centrifuged.\nNormal saline: normal saline was injected at an administration volume of 5 mL/kg.\nBlank fat emulsion (20% medium-long-chain fat emulsion): the administration volume was 5 mL/kg.\nSBE-β-CD: the preparation method was: 0.7 mL of 13% SBE-β-CD+4.3 mL of normal saline, and the administration volume was 5 mL/kg. […] Cremophor EL: 0.7 mL of Cremophor EL+4.3 mL of normal saline, the concentration of Cremophor EL was 0.14 mL/mL, the dose was 5 mL/kg, and the dose of Cremophor EL was 0.7 mL/kg.\nSBE-β-CD & Cremophor EL: 0.7 mL of 13% SBE-β-CD+0.7 mL of Cremophor EL+3.6 mL of normal saline, and the administration volume was 5 mL/kg.\nThe administration volume was 3.5 mL/kg, the dose was 7 mg/kg; the administration amount of castor oil was 0.245 mL/kg."}}}
{"compound": "C[C@]12CC[C@@H](O)C[C@@H]1CC[C@H]1[C@@H]3CC[C@H](C(=O)CO)[C@@]3(C)CC(=O)[C@@H]12", "note": "[alphadolone]", "values": [{"measurement": "potency of alphadolone relative to alphaxalone", "setting": "[1]", "result": "half"}]}
{"compound": "CC(=O)[C@H]1CC[C@H]2[C@@H]3CC[C@H]4C[C@H](O)CC[C@]4(C)[C@H]3C(=O)C[C@]12C", "note": "[alphaxalone]", "values": [{"measurement": "ED50 of alphaxalone", "setting": "[2]", "result": "about 3.5 mg/kg"}]}
{"compound": "sulfobutyl-β-cyclodextrin [SBE-β-CD]", "values": [{"measurement": "Plasma histamine concentration", "setting": "[3]", "result": "15.28 ± 2.33", "unit": "ng/mL"}]}
